The results in this text go back to patent US20230099344A1, “COMPOUNDS AND METHODS FOR THE TARGETED DEGRADATION OF IRAK-4” (Arvinas Operations, Inc., priority 2021, published 2023).

pIC50: −log10 of the molar value.

Common to all, as to format: cell-based
In test [1] the test system is IL6. The test is described as follows: LPS stimulated IL6 inhibition assay in PBMC. Conditions: human PBMCs, LPS stimulation, compound overnight, IL6 by MSD after 24 hrs; for Dmax: read-out: LPS Stim IL6 inhibition Dmax; for pIC50: read-out: LPS stim IL6 inhibition IC50. In outline:
(§1)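 Primary human PBMCs plated at 2.0×10^6 cells/mL are incubated with compound overnight. Stimulation follows using the donor's EC50 concentration of agonist. MSD detects secreted IL6/IL8 at 24 hrs.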

The subject of test [2] is IL6. The test is described as follows: R848 stimulated IL6 inhibition assay in PBMC. Conditions: human PBMCs, R848 stimulation, compound overnight, IL6 by MSD after 24 hrs; for Dmax: Homo sapiens, 24 h, read-out: R848 stim IL6 inhibition Dmax; for pIC50: read-out: R848 stim IL6 inhibition IC50. The procedure, abridged:
as §1

Test [3] addresses T1, IRAK-4 (Homo sapiens, UniProt Q9NWZ3).
T1 sequence (Q9NWZ3 1-460): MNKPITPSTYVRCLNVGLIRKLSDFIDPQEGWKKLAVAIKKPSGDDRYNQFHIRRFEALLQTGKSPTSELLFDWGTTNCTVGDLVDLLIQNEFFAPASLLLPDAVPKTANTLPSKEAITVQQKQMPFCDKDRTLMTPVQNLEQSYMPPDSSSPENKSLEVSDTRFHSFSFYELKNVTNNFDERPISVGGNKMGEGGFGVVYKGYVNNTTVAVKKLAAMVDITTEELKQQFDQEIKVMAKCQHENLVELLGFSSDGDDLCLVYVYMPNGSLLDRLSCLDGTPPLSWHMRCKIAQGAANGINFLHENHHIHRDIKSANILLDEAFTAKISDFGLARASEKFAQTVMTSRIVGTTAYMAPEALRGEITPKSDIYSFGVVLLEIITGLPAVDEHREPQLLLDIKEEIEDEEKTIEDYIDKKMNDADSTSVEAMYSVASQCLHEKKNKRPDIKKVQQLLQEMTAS
The test is described as follows: IRAK-4 ELISA, PBMC degradation. The arrangement: endogenous in cells; host or cells: PBMC. As to conditions: treated overnight. In outline:
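Overnight compound treatment, started on the day of plating, of OCI-Ly10 (1×10^6/ml) and PBMC (2×10^6/ml) cultures. Lysates are collected and IRAK-4 content is read by sandwich ELISA.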
In general terms: ELISA stands for enzyme-linked immunosorbent assay.

For orientation: pIC50 means the negative decadic logarithm of the IC50, by convention in mol/L. As usually defined, the DC50 is the concentration at which degradation of the target reaches its halfway point. A high value points to a less potent degrader. Take `CC(C)Oc1cc2c(cc1NC(=O)c1cnn3cccnc13)CN(C[C@@H](F)C1CCN(CC3CN(c4cccc5c4n(C)c(=O)n5C4CCC(=O)NC4=O)C3)CC1)C2=O` (stereo partly shown) [Example 382]: in test [1] (Homo sapiens, PBMC, 24 h), the Dmax lay in the range of 70 to 80% and the pIC50 was 7.30 to 8.00. In addition, in test [2] (PBMC), the Dmax is no less than 90% and the pIC50 was 7.30 to 8.00. Besides, in test [3], the DC50 is less than 1 nM, the Dmax was no less than 90% and the “PBMC DC90” value was “A (A represents a DC90 value <10.0 nM)”.

As for `CC(C)Oc1cc2c(cc1NC(=O)c1cnn3cccnc13)CN([C@H]1CC[C@H](N(C)C3CN(c4cccc5c4n(C)c(=O)n5C4CCC(=O)NC4=O)C3)CC1)C2=O` (stereo partly shown) [Example 384, N-(2-((1r,4r)-4-((1-(1-(2,6-dioxopiperidin-3-yl)-3-methyl-2-oxo-2,3-dihydro-1H-benzo[d]imidazol-4-yl)azetidin-3-yl)(methyl)amino)cyclohexyl)-6-isopropoxy-1-oxoisoindolin-5-yl)pyrazolo[1,5-a]pyrimidine-3-carboxamide], in test [1], the “LPS Stim IL6 inhibition Dmax” value was “C (C represents a Ymax value ≥70 and <80)”; the pIC50 was no more than 7.00. Moreover, in test [2], the “R848 stim IL6 inhibition Dmax” value is “A (A represents a Ymax value ≥90)” and the pIC50 was greater than 8.00. For the same molecule, in test [3], the DC50 is less than 1 nM, the “PBMC DC90” value is given as “A (A represents a DC90 value <10.0 nM)” and the “PBMC Dmax” value is “A (A represents a Dmax value ≥90)”.

In the case of `C=Nc1c(C(=O)Nc2cc3cn(C4CCN(CC5(F)CN(c6cccc7c6n(C)c(=O)n7C6CCC(=O)NC6=O)C5)CC4)nc3cc2C2CC2)cnn1/C=C\C` (stereo not shown) [Example 389], in test [1] (Homo sapiens, PBMC, 24 h), the Dmax is no less than 90% and the pIC50 was no more than 7.00. In test [2] (PBMC), the Dmax was no less than 90% and the pIC50 is 7.30 to 8.00. Also, in test [3], the DC50 was less than 1 nM, the Dmax is 80 to 90% and the “PBMC DC90” value was “A (A represents a DC90 value <10.0 nM)”.

Take `CC(C)Oc1nc2c(cc1NC(=O)c1cnn3cccnc13)CN(C1CCN(CC3CN(c4ccc(C(=O)NC5CCC(=O)NC5=O)c(F)c4)C3)CC1)C2=O` (stereo not shown) [Example 402]: in test [1] (Homo sapiens, PBMC, 24 h), the Dmax was less than 70% and the pIC50 was 7.30 to 8.00. Moreover, in test [2] (PBMC), the Dmax was in the range of 80 to 90% and the pIC50 is 7.30 to 8.00. In test [3], the DC50 was less than 1 nM, the Dmax is no less than 90% and the “PBMC DC90” value is “A (A represents a DC90 value <10.0 nM)”.

Take `O=C1CCC(N2C(=O)c3ccc(N4CCCC5(C4)CN([C@H]4CC[C@H](n6cc7cc(NC(=O)c8cnn9cccnc89)c(OCC8CC8)cc7n6)CC4)C5)cc3C2=O)C(=O)N1` (stereo partly shown) [Example 418]: in test [1] (Homo sapiens, PBMC, 24 h), the Dmax lay within 80 to 90% and the pIC50 is 7.30 to 8.00. Besides, in test [2] (PBMC), the Dmax was no less than 90% and the pIC50 is greater than 8.00. Moreover, in test [3], the 50% degradation concentration (DC50) is less than 1 nM, the Dmax lay within 80 to 90% and the “PBMC DC90” value was “A (A represents a DC90 value <10.0 nM)”.

As to `O=C1CCC(N2C(=O)c3cccc(N4CC5(CCCN(C6CCC(n7cc8cc(NC(=O)c9cnn%10cccnc9%10)c(OCC9CC9)cc8n7)CC6)C5)C4)c3C2=O)C(=O)N1` (stereo not shown) [Example 419], in test [1] (Homo sapiens, PBMC, 24 h), the Dmax fell in the range of 70 to 80% and the pIC50 was greater than 8.00. For the same molecule, in test [2] (PBMC), the Dmax lay within 80 to 90% and the pIC50 was 7.30 to 8.00. Also, in test [3], the DC50 is 1 to 5 nM, the Dmax lay in the range of 70 to 80% and the “PBMC DC90” value is “A (A represents a DC90 value <10.0 nM)”.

For the molecule `O=C1CCC(N2Cc3cc(N4CC(O[C@H]5CC[C@H](n6cc7cc(NC(=O)c8cnn9cccnc89)c(OCC8CC8)cc7n6)CC5)C4)ccc3C2=O)C(=O)N1` (stereo partly shown) [Example 423, N-[6-(cyclopropylmethoxy)-2-[(1r,4r)-4-({1-[2-(2,6-dioxopiperidin-3-yl)-1-oxo-2,3-dihydro-1H-isoindol-5-yl]azetidin-3-yl}oxy)cyclohexyl]-2H-indazol-5-yl]pyrazolo[1,5-a]pyrimidine-3-carboxamide], in test [1] (Homo sapiens, PBMC, 24 h), the Dmax was in the range of 80 to 90% and the pIC50 was 7.30 to 8.00. Further, in test [2] (PBMC), the Dmax was no less than 90% and the pIC50 is 7.30 to 8.00. In test [3], the DC50 fell in the range of 1 to 5 nM; the Dmax was no less than 90%; the “PBMC DC90” value is “B (B represents a DC90 value ≥10.0 nM and <25.0 nM)”.

`CC(C)Oc1cc2nn([C@H]3CC[C@H](OC4CN(c5ccc6c(c5)CN(C5CCC(=O)NC5=O)C6=O)C4)CC3)cc2cc1NC(=O)c1cnn2cccnc12` (stereo partly shown) [Example 424]: in test [1] (Homo sapiens, PBMC, 24 h), the Dmax was less than 70% and the pIC50 is greater than 8.00. In addition, in test [2] (PBMC), the Dmax was in the range of 80 to 90% and the pIC50 is greater than 8.00. In test [3], the DC50 lay in the range of 1 to 5 nM; the Dmax is 80 to 90%; the “PBMC DC90” value was “B (B represents a DC90 value ≥10.0 nM and <25.0 nM)”.

`O=C1CCC(N2C(=O)c3ccc(N4CC[C@@H](O[C@H]5CC[C@@H](n6cc7cc(NC(=O)c8cnn9cccnc89)c(OCC8CC8)cc7n6)CC5)C4)cc3C2=O)C(=O)N1` (stereo partly shown) [Example 425]: in test [1] (Homo sapiens, PBMC, 24 h), the Dmax was in the range of 70 to 80% and the pIC50 was 7.00 to 7.30. Further, in test [2] (PBMC), the Dmax fell in the range of 70 to 80% and the pIC50 is 7.00 to 7.30. Also, in test [3], the DC50 was no less than 10 nM and the “PBMC DC90” value was “D (D represents a DC90 value ≥50 nM)”.

As for `O=C1CCC(N2C(=O)c3ccc(N4CC[C@@H](O[C@H]5CC[C@H](n6cc7cc(NC(=O)c8cnn9cccnc89)c(OCC8CC8)cc7n6)CC5)C4)cc3C2=O)C(=O)N1` (stereo partly shown) [Example 426], in test [1] (Homo sapiens, PBMC, 24 h), the Dmax is less than 70% and the pIC50 was 7.00 to 7.30. Moreover, in test [2] (PBMC), the Dmax lay in the range of 80 to 90% and the pIC50 was 7.00 to 7.30. In addition, in test [3], the DC50 is no less than 10 nM, the Dmax was no less than 90% and the “PBMC DC90” value is recorded as “D (D represents a DC90 value ≥50 nM)”.

For the molecule `O=C1CCC(N2C(=O)c3ccc(N4CC[C@H](O[C@H]5CC[C@@H](n6cc7cc(NC(=O)c8cnn9cccnc89)c(OCC8CC8)cc7n6)CC5)C4)cc3C2=O)C(=O)N1` (stereo partly shown) [Example 427], in test [1] (Homo sapiens, PBMC, 24 h), the Dmax lay in the range of 70 to 80% and the pIC50 was greater than 8.00. Further, in test [2] (PBMC), the Dmax is less than 70% and the pIC50 was 7.30 to 8.00. In test [3], the DC50 is no less than 10 nM and the “PBMC DC90” value is on record as “D (D represents a DC90 value ≥50 nM)”.

For `O=C1CCC(N2C(=O)c3ccc(N4CC[C@H](O[C@H]5CC[C@@H](n6cc7cc(NC(=O)c8cnn9cccnc89)c(OCC8CC8)cc7n6)CC5)C4)cc3C2=O)C(=O)N1` (stereo partly shown) [Example 428], in test [1], the “LPS Stim IL6 inhibition Dmax” value was “D (D represents a Ymax value <70)” and the pIC50 is 7.30 to 8.00. In addition, in test [2], the “R848 stim IL6 inhibition Dmax” value is reported as “A (A represents a Ymax value ≥90)” and the pIC50 was 7.30 to 8.00. Also, in test [3], the DC50 was 1 to 5 nM; the Dmax is no less than 90%; the “PBMC DC90” value is “B (B represents a DC90 value ≥10.0 nM and <25.0 nM)”.

`O=C1CCC(N2C(=O)c3ccc(C4CCN(C[C@H]5CC[C@H](n6cc7cc(NC(=O)c8cnn9cccnc89)c(OCC8CC8)cc7n6)CC5)CC4)cc3C2=O)C(=O)N1` (stereo partly shown) [Example 429, N-[6-(cyclopropylmethoxy)-2-[(1r,4r)-4-({4-[2-(2,6-dioxopiperidin-3-yl)-1,3-dioxo-2,3-dihydro-1H-isoindol-5-yl]piperidin-1-yl}methyl)cyclohexyl]-2H-indazol-5-yl]pyrazolo[1,5-a]pyrimidine-3-carboxamide]: in test [1] (Homo sapiens, PBMC, 24 h), the Dmax was in the range of 70 to 80% and the pIC50 is greater than 8.00. Also, in test [2] (PBMC), the Dmax was no less than 90% and the pIC50 is 7.30 to 8.00. In test [3], the DC50 was less than 1 nM, the Dmax was no less than 90% and the “PBMC DC90” value is listed as “A (A represents a DC90 value <10.0 nM)”.

With `O=C1CCC(N2C(=O)c3ccc(N4CCN(C[C@H]5CC[C@H](n6cc7cc(NC(=O)c8cnn9cccnc89)c(OCC(F)F)cc7n6)CC5)CC4)cc3C2=O)C(=O)N1` (stereo partly shown) [Example 430], in test [1] (Homo sapiens, PBMC, 24 h), the Dmax lay within 70 to 80% and the negative logarithm of the IC50 (pIC50) is 7.30 to 8.00. In test [2] (PBMC), the Dmax is no less than 90% and the pIC50 is 7.30 to 8.00. Also, in test [3], the DC50 is 1 to 5 nM, the Dmax was no less than 90% and the “PBMC DC90” value is recorded as “A (A represents a DC90 value <10.0 nM)”.

With `CC(C)Oc1cc2c(cc1NC(=O)c1cnn3cccnc13)CN([C@H]1CC[C@H](CN3CCN(c4ccc5c(c4)C(=O)N(C4CCC(=O)NC4=O)C5=O)CC3)CC1)C2=O` (stereo partly shown) [Example 431], in test [1] (Homo sapiens, PBMC, 24 h), the Dmax was in the range of 70 to 80% and the pIC50 is 7.30 to 8.00. Further, in test [2] (PBMC), the Dmax is no less than 90% and the pIC50 is 7.30 to 8.00. Also, in test [3], the DC50 was 1 to 5 nM, the Dmax is no less than 90% and the “PBMC DC90” value is listed as “A (A represents a DC90 value <10.0 nM)”.
